Measured values published in patent US20260094269A1, “DIAGNOSIS AND MONITORING OF NEURODEGENERATIVE DISEASES” (MACQUARIE UNIVERSITY, priority 2019, published 2026).

Test system: monocytes
Assay: Hyperspectral autofluorescence imaging of monocytes isolated from treated ALS / motor neuron disease patients (LDA projection, response score)
Assay type: in vivo, human
From the text: In the particular implementation presented here the “response vectors” were obtained using the following procedure. First, a discriminatory model was developed using a subset of the data based on two groups, the first group comprising the controls C1 C4 and two sets of patient data P2 and P6, while the second group comprising P1, P3, and P4. Second, all data from FIG. 4 was projected on the direction joining the centres of the two cell data clusters for the two groups defined above and a one-dimensional response vector was determined by a projection of each original cell vector from FIG. 4. These one-dimensional response vectors for all cells were presented in a box plot format (each symbol indicates a response vector for a different cell).
The box plots in FIGS. 5 and 6 comprise rectangles with three shades of grey. The thin line in the centre of the rectangle has the darkest shade of grey and represents the median value; the two stripes immediately adjacent to the centre line have the lightest shade of grey and represent the 95% confidence region (1.96×SEM); and the two stripes nearest to the ends of the rectangle have an intermediate shade of grey and represent the first standard deviation. If the light-grey regions of a cluster are not horizontally overlapping, one can be confident of having measured a difference. The values in the plot were shifted by a value of 1.3358, just for sake of placing the controls about zero, although this is an arbitrary shift and, in other examples, the values may be shifted by other amounts. Clusters may be classified according to their mean values: high values may be attributed to “diseased and unresponsive” state, intermediate values may be attributed to “normal”, and low values compared to normal may be interpreted as “drug affected”.
Blood samples were collected using Vacutainer® CPT™ Cell Preparation Tube (BD Australia, catalogue: 362760). 4 mls of whole blood from controls and MND patients were collected into the CPT tube via veinpuncture technique, using the standard technique for BD Vacutainer® Evacuated blood collection tubes. After collection, the tube/blood samples were centrifuged at room temperature (18-25° C.) in a horizontal rotor centrifuge for a minimum of 20 minutes at 1500 to 1800 RCF. After centrifugation, mononuclear cells and platelets located in a whitish layer (Buffy layer just under the plasma layer) were collected using a Pasteur pipette and transferred to a 15 mL size conical centrifuge tube.
Monocytes were isolated from collected buffy layer using a Pan Monocyte Isolation Kit, human (Miltenyi Biotec, catalogue: 130-096-537). The Monocyte Isolation Kit is an indirect magnetic labelling system for the isolation of untouched monocytes from human peripheral blood mononuclear cells (PBMCs). Non-monocytes, i.e. T cells, NK cells, B cells, dendritic cells and basophils, are indirectly magnetically labeled using a cocktail of biotin-conjugated antibodies against CD3, CD7, […], CD19, CD56, CD123 and Glycophorin A, and Anti-Biotin MicroBeads. Isolation of highly pure unlabelled monocytes is achieved by depletion of the magnetically labeled cells. […]

Structure (SMILES) | clustering of monocytes (autofluorescence spectral space) relative to healthy control (ALS Patient 1, before (T0) vs three weeks after (T1) start of treatment, FIG. 5(a)) | response score (one-dimensional projection), longitudinal testing (ALS Patients 1 and 2, T0 vs T1-T3 over the course of treatment, FIG. 5(c)) | position of treated patients' cell data in LDA projection (control space vs patient space) (FIG. 4, all patients and controls C1-C4) | position of patient cell data in LDA projection over consecutive tests (FIG. 4, patient (P5), Test1 to Test4) | range of response scores compared with healthy controls (eight other ALS patients (Patients 3-10), FIG. 6)
CN=C([S-])N/N=C(C)/C(C)=N/NC([S-])=NC.[Cu+2] [CuATSM, Copper ATSM] | normalised towards the healthy cells | statistically strong drug responses from time T1 onwards | appear in the control space or to the left hand side | progressively moving left (and less component 2) into the control/treated space | –
Nc1nc2ccc(OC(F)(F)F)cc2s1 [Riluzole] | – | – | – | – | much wider range of response scores than healthy controls
